System: Caco-2 monolayer permeability, A-to-B, LC-MS/MS
Experiment: Inhibitors of 12-hLO: Caco-2 Permeability Profiling
Conditions: stronger effect = higher value
Source text: Assay Provider: Holman, T.R., University of California, Santa Cruz Grant #: MH08128301 Screening Center PI: Austin, C.P. Screening Center: NIH Chemical Genomics Center [NCGC] Human lipoxygenase 12hLO is a member of the closely related lipoxygenase family of enzymes which catalyze the site-specific oxidation of arachidonic acid to various hormone precursor molecules and as such is a candidate for drug development in a variety of disease areas, such as cancer and inflammation. After qHTS, hits were confirmed in follow-up assays, and leads were optimized through SAR. The resulting lead compound was further characterized through a battery ADME-Tox experiments and this assay describes its Caco-2 permeability. This permeability assay predicts the in vivo absorption of the lead across the intestinal lining by using a Caco-2 cell line and measuring the lead's rate of transport […].
1. Buffer Preparation: Prepare 1M HEPES: add 23.83g HEPES to 100ml of 0.85% NaCl Prepare HBSS+ buffer: add 12.8ml of 1M HEPES in 0.85% NaCl to 500ml HBSS buffer. 2. Take out the compounds from -80 degrees C, ultrasonicate or pre-warm for a few minutes to thaw the compounds. 3. […] The T0, LY and T90, LY plates are read by FlexStation 3 at excitation of 485 nm and emission of 535 nm to determine LY permeability. […]

permeability Papp: 8.8 10^-6 cm/s
Structure (SMILES): CC(=O)NC(c1cccs1)c1cc(Br)c2cccnc2c1O (stereo unspecified)
